This assay deals with BDF1 mice, P388 leukemia ip, median survival T/C. Nature of the assay: NCI In Vivo Anticancer Drug Screen. Data for tumor model P388 Leukemia (intraperitoneal) in B6D2F1 (BDF1) mice. The note with it: endpoint: median survival time, higher = longer survival. The procedure, abridged:
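Steps: implant the tumour, treat one group with compound and another with vehicle, record survival, then divide treated by control.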

Setting [1] is: dose: 100.0 mg/kg/injection, schedule: Q01DX009 (ip), vehicle: saline with Tween-80.
[2] abbreviates: dose: 200.0 mg/kg/injection, schedule: Q01DX009 (ip), vehicle: saline with Tween-80.
Setting [3] is: dose: 100.0 mg/kg/injection, schedule: Q04DX003 (ip), vehicle: saline with Tween-80.
[4] abbreviates: dose: 200.0 mg/kg/injection, schedule: Q04DX003 (ip), vehicle: saline with Tween-80.
Where [5] appears, read: dose: 400.0 mg/kg/injection, schedule: Q04DX003 (ip), vehicle: saline with Tween-80.
The mark [6] stands for this setting: dose: 50.0 mg/kg/injection, schedule: Q01DX009 (ip), vehicle: saline with Tween-80.

Values joined by “and” are separate entries in the source; they are usually repeats but may differ in a detail not shown here. Identical values can stand only once. Toxic doses and inconclusive results are not listed.

Drawing on PubChem BioAssay AID328 (DTP/NCI, 2004), this text covers T/C for 13 compounds.

As for `CN(C)C(=O)C1CCC1`, the T/C reads like this: under setting [1], 104 % of control; under setting [2], 90 % of control; (dose: 400.0 mg/kg/injection, schedule: Q01DX009 (ip), vehicle: saline with Tween-80) 113 % of control.

Regarding `BrC1CC(Br)c2c1c1c(c3c2C(Br)CC3Br)C(Br)CC1Br` (centres undefined), under setting [2], the T/C was 90 % of control.

Regarding `OCCN(CCO)c1cc(O)cc(O)c1`, the T/C runs as follows: under setting [3], 106 % of control; under setting [4], 120 % of control; under setting [5], 117 % of control.

Take `Nc1cc(Cl)cc(Cl)c1C(=O)O`: the T/C is 95 % of control (dose: 100.0 mg/kg/injection, schedule: Q01DX001 (ip), vehicle: other); 100 % of control (dose: 200.0 mg/kg/injection, schedule: Q01DX001 (ip), vehicle: other); 95 % of control (dose: 400.0 mg/kg/injection, schedule: Q01DX001 (ip), vehicle: other).

On to `O=[N+]([O-])c1ccc(N2CCN(c3cccc(C(F)(F)F)c3)CC2)c([N+](=O)[O-])c1`, for which the T/C is, setting by setting: under setting [3], 113 % of control; under setting [4], 100 % of control; under setting [5], 100 % of control.

Regarding `C=C[C@@](C)(O)CC/C=C(/C)CCC=C(C)C`, the T/C under setting [1] was 109 % of control.

Consider `c1ccc(-c2cc[s+]s2)cc1`, for which the T/C was 110 % of control and 114 % of control (dose: 3.12 mg/kg/injection, schedule: Q01DX009 (ip), vehicle: water); 94 % of control and 103 % of control and 120 % of control (dose: 6.25 mg/kg/injection, schedule: Q01DX009 (ip), vehicle: water); 100 % of control and 103 % of control and 123 % of control (dose: 12.5 mg/kg/injection, schedule: Q01DX009 (ip), vehicle: water); 116 % of control (dose: 12.5 mg/kg/injection, schedule: Q04DX003 (ip), vehicle: water); 100 % of control (dose: 25.0 mg/kg/injection, schedule: Q01DX009 (ip), vehicle: water); 104 % of control (dose: 25.0 mg/kg/injection, schedule: Q04DX003 (ip), vehicle: water). The T/C was 92 % of control and 116 % of control (dose: 50.0 mg/kg/injection, schedule: Q01DX009 (ip), vehicle: water); 101 % of control (dose: 200.0 mg/kg/injection, schedule: Q04DX003 (ip), vehicle: water).

Regarding `Nc1ncnc2nc(-c3ccc(Br)cc3)[nH]c12`, the T/C (dose: 100.0 mg/kg/injection, schedule: Q01DX001 (ip), vehicle: saline with Tween-80) was 94 % of control and the T/C (dose: 200.0 mg/kg/injection, schedule: Q01DX001 (ip), vehicle: saline with Tween-80) is 106 % of control.

As for `CN(C)c1ccc(/C=C\c2cc(/C=C/c3ccc(N(C)C)cc3)nc3ccccc23)cc1`, the T/C is 103 % of control under setting [6], 116 % of control under setting [1] and 120 % of control under setting [2].

As for `Nc1cc2ccncc2c2sc3ccccc3c12`, the T/C by setting is: (dose: 100.0 mg/kg/injection, schedule: Q04DX003 (ip), vehicle: saline) 104 % of control; (dose: 200.0 mg/kg/injection, schedule: Q04DX003 (ip), vehicle: saline) 97 % of control; (dose: 400.0 mg/kg/injection, schedule: Q04DX003 (ip), vehicle: saline) 106 % of control.

`C=CC1CC[N-]CC1.C=CC1CC[N-]CC1.C=CC1CC[N-]CC1.[Cl][Cr]([Cl])[Cl]`: the T/C runs as follows: (dose: 12.5 mg/kg/injection, schedule: Q01DX009 (ip), vehicle: saline with Tween-80) 100 % of control; (dose: 25.0 mg/kg/injection, schedule: Q01DX009 (ip), vehicle: saline with Tween-80) 109 % of control; under setting [6], 104 % of control.

Regarding `CC(=O)Nc1ccc(Cl)c(Cl)c1`, the T/C was 100 % of control (dose: 100.0 mg/kg/injection, schedule: Q04DX003 (ip), vehicle: saline sonified); 90 % of control under setting [3]; 120 % of control (dose: 200.0 mg/kg/injection, schedule: Q04DX003 (ip), vehicle: saline sonified); 100 % of control under setting [4]; 104 % of control (dose: 400.0 mg/kg/injection, schedule: Q04DX003 (ip), vehicle: saline sonified).

Turning to `O=C1NC(=O)C2(CCCc3ccc(N(CCCl)CCCl)cc32)N1` (centres undefined), the T/C reads like this: (dose: 6.25 mg/kg/injection, schedule: Q04DX003 (ip), vehicle: saline with Tween-80) 150 % of control; (dose: 12.5 mg/kg/injection, schedule: Q04DX003 (ip), vehicle: saline with Tween-80) 170 % of control; under setting [3], 227 % of control; (dose: 132.0 mg/kg/injection, schedule: Q04DX003 (ip), vehicle: saline with Tween-80) 195 % of control; under setting [4], 229 % of control and 240 % of control; (dose: 300.0 mg/kg/injection, schedule: Q04DX003 (ip), vehicle: saline with Tween-80) 191 % of control.
